Assay [1] addresses human CYP11B2 (Homo sapiens (Human), UniProt P19099). Nature of the assay: V79-Human-CYP11B2 Assay. The class given is cell-based. The settings on record: V79MZh11B2 cells, substrate deoxycorticosterone 100 nM, 50 min incubation. As for the experimental part:
(§1) V79MZh11B1 and V79MZh11B2 cells (8×10^5 cells/well) were grown on 24-well culture plates until confluence. Before testing, the DMEM culture medium was removed and 450 μl of fresh DMEM containing the inhibitor was added to each well. After a preincubation step of 60 min at 37° C., the reaction was started by the addition of 50 μl of DMEM in which the substrate deoxycorticosterone (containing 0.15 μCi of [1,2-3H]-deoxycorticosterone in ethanol, final test concentration 100 nM) was dissolved. Incubation times were 25 min for V79MZh11B1 and 50 min for V79MZh11B2 cells at 37° C., respectively. The enzyme reactions were stopped by extracting the supernatant with ethyl acetate. Samples were centrifuged (10.000 g, 5 min) and the solvent was pipetted into fresh cups. After evaporation of the solvent, the steroids were redissolved in 40 μl of […] and analyzed by HPLC. Detection and quantification of the steroids were performed using a radioflow detector. To first estimate the different IC50 values, five different concentrations ranging from 1 to 10.000 nM were measured. For the following IC50 determination, three different concentrations (repeat-determinations) were measured for each […] value of each inhibitor in which the second concentration led to an inhibition of approximately 40 to 60%. […] The final IC50 value was estimated as the average of three or four independent IC50 values and a selectivity factor corresponding to the ratio between the […] values of CYP11B1 and CYP11B2 was calculated for each substance.

For assay [2], the target named is human CYP11B1 (Homo sapiens (Human), UniProt P15538). Put plainly: V79-Human-CYP11B1 Assay. The class given is cell-based. As to conditions: V79MZh11B1 cells, substrate deoxycorticosterone 100 nM, 25 min incubation. As for the experimental part:
as §1

Sequence of human CYP11B2 (P19099 25-503): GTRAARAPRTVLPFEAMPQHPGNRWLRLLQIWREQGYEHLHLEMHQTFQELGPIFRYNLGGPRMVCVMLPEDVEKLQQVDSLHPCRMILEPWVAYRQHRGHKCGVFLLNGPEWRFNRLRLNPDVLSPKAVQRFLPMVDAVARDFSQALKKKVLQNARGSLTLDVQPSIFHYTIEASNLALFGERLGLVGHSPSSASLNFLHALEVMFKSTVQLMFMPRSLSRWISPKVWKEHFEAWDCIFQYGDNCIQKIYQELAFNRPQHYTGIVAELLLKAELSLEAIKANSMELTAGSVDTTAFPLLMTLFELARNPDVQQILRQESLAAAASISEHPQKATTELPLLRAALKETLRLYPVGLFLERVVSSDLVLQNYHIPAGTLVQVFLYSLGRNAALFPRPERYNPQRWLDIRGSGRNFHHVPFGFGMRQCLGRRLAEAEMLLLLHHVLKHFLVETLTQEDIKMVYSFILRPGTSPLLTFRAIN
Sequence of human CYP11B1 (P15538 25-503): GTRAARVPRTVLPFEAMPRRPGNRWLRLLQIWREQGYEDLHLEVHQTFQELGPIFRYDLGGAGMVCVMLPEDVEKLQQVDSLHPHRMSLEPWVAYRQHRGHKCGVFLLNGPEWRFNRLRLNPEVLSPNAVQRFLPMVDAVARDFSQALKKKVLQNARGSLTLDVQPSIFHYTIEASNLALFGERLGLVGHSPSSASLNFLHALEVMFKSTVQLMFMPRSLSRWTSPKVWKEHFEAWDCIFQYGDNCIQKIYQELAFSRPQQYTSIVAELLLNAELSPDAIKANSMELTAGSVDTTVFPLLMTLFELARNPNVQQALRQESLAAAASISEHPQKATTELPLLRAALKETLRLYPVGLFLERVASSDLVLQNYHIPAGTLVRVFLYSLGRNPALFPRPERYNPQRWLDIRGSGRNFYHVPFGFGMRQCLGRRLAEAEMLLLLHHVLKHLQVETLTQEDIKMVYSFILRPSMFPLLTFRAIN

By IC50 is commonly meant the concentration that inhibits the measured activity by half. In the case of `Cc1nnc2n1-c1c(F)cc(-c3cncc(F)c3C3CC3)cc1CC2` [Example 1, 7-(4-cyclopropyl-5-fluoropyridin-3-yl)-9-fluoro-1-methyl-4,5-dihydro-[1,2,4]triazolo[4,3-a]quinoline], the half-inhibitory concentration (IC50) in assay [1] amounted to 7.3 nM; in assay [2] it was 2290 nM.
The matching figures for `Cc1c(F)cncc1-c1cc(F)c2c(c1)CCc1nnc(C)n1-2` [Example 2, 9-fluoro-7-(5-fluoro-4-methylpyridin-3-yl)-1-methyl-4,5-dihydro-[1,2,4]triazolo[4,3-a]quinoline]: 6 nM and 1420 nM.
The matching figures for `Cc1nnc2n1-c1c(F)cc(-c3cncc(F)c3C(C)C)cc1CC2` [Example 3, 9-fluoro-7-(5-fluoro-4-isopropylpyridin-3-yl)-1-methyl-4,5-dihydro-[1,2,4]triazolo[4,3-a]quinoline]: 9.5 nM and 3970 nM.
For `Cc1nnc2n1-c1c(F)cc(-c3cncc(F)c3Cl)cc1CC2` [Example 4, 7-(4-chloro-5-fluoropyridin-3-yl)-9-fluoro-1-methyl-4,5-dihydro-[1,2,4]triazolo[4,3-a]quinoline], the IC50 was found to be 21.6 nM in assay [1] and 9800 nM in assay [2].

Values taken from patent US9278093B2, “Aldosterone synthase inhibitors” (Merck Sharp & Dohme Corp., priority 2012, dated 2016).
